Experimental data published in patent publication US8633252B2, “Use of pterosin compounds for treating diabetes and obesity” (Taipei Medical University, priority 2009, dated 2014).

Columns and labels:
[1] = tested on: Streptozotocin (STZ)-induced diabetic mice; test: Glucose tolerance assay in type I diabetic mice; format: in vivo
Procedure: Streptozotocin (STZ)-induced diabetic mice were administered orally with Compound 1 (50 mg/kg). STZ-induced diabetic mice are a well-known mouse model of type I diabetes (insulin dependent). See, e.g., Liu I M, et al., Neuroscience Letters 2001; 307: 81-84.
Two hours later, normal mice, STZ-induced diabetic mice, and the Compound 1-treated STZ-mice as described were subjected to a glucose tolerance assay. Briefly, all of the mice were orally administered with 1 g/kg glucose and the blood glucose levels of these mice were examined at 30, 60, 90, 120 and 150 minutes. In the normal and STZ-diabetic mice, the blood glucose levels elevated 30 minutes after uptake of glucose.
Alternatively, STZ-induced diabetic mice were treated with Compound 1 orally (100 mg/kg) for 14 days. These mice were then orally administered with glucose at a dose of 2 g/kg. Their blood glucose levels were examined 15, 45, 75, and 105 minutes after glucose administration.

C2C12 mycrotubes [2] = test: Insulin sensitivity assay (glucose uptake in presence of insulin); format: cell-based; details: in the presence of insulin 100 nM
Procedure: Differentiated C2C12 mycrotubes (American Type Culture Collection: ATCC) were used to conduct an insulin sensitivity assay, which was performed based on the method as described in Experimental and Molecular Medicine, Vol. 39, No. 2, 222-229, 2007. Briefly, the cells were incubated with different concentrations of Compound 1 in the presence of insulin 100 nM, and then the glucose uptake was measured. AMPK activator AICAR (5-amino-4-carboxamide imidazole riboside 5′-phosphate, […]) was used as a positive control.

C2C12 mycrotubes [3] = test: Glucose consumption/uptake assay; format: cell-based; details: [14C]2-DG, incubated with compounds for 1 hour
Procedure: Differentiated C2C12 mycrotubes (American Type Culture Collection: ATCC) were used to conduct a glucose consumption/uptake assay, which was performed based on the method as described in Experimental and Molecular Medicine, Vol. 39, No. 2, 222-229, 2007. Briefly, the C2C12 cells were pretreated with 0.5 μCi [^14C]2-DG for 20 min and then incubated with compounds for 1 hour to determine glucose uptake by radio activity. All values are expressed as the means±S.E. of three experiments.

[4] = tested on: Glut4 (glucose transporter-4); test: Glucose transporter-4 (Glut4) expression assay in soleus muscles; format: in vivo; details: STZ-induced diabetic mice, 100 mg/kg orally for 14 days, western blot
Procedure: GLUT4 plays an important role in insulin-induced glucose uptake to maintain normal blood glucose levels. In this study, STZ-induced diabetic mice were treated with Compound 1 orally (100 mg/kg) for 14 days; and then normal mice, STZ-induced diabetic, and the Compound 1-treated STZ-mice as described were analyzed for the Glut4 expression in soleus muscles based on the method as described in Biochem J. 1996; 313(Pt 1): 133-140). Briefly, at the end of the experimental period, animals were sacrificed by exsanguinations under diethyl ether anesthesia. Soleus muscles from each animal were excised and weighed. The soleus muscles were homogenized in lysis buffer and centrifugation, and then went to determine the GLUT4 protein expression by western blot analysis.

PEPCK mRNA = test: Phosphoenolpyruvate carboxykinase (PEPCK) mRNA expression assay in liver; format: in vivo; details: STZ-induced diabetic mice, 100 mg/kg orally for 14 days, RT-PCR
Procedure: PEPCK is known as a key enzyme that controls gluconeogenesis in the liver. In this study, STZ-induced diabetic mice were treated with Compound 1 orally (100 mg/kg) for 14 days, and then normal mice, STZ-induced diabetic, and the Compound 1-treated STZ-mice described above were analyzed for the PEPCK mRNA expression in liver based on the method as described in Bulletin of Experimental Biology and Medicine 1979; 87: 568-571. Briefly, at the end of the experimental period, animals were sacrificed by exsanguinations under diethyl ether anesthesia. Livers from each animal were excised and weighed. The liver homogenates were prepared to determine the PEPCK mRNA expression by RT-PCR analysis.

db/db mice [5] = test: Glucose tolerance assay in type II diabetic mice; format: in vivo; details: 100 mg/kg/day orally 28 days or 30 mg/kg/day i.p. 21 or 28 days
Procedure: Insulin-resistant C57BL/6J-Leprdb/Lepr^db (hereafter, db/db) mice are a well-known mouse model of type II diabetes. See, e.g., Metabolism. 2000; 49:22-31). In this study, the db/db mice (Jackson Laboratory) were orally administered with Compound 1 (100 mg/kg/day) for 28 days, or administered with Compound 1 (30 mg/kg/day) via intraperitoneal (i.p.) injection for 21 days or 28 days. Two hours later, normal mice, db/db-mice, and the Compound 1-treated db/db-mice were subjected to a glucose tolerance assay as described in Example 1. FIGS. 6 to 8 show the results.

db/db mice [6] = test: HbA1C (Haemoglobin A1C) test in type II diabetic mice; format: in vivo; details: 100 mg/kg/day orally for 28 days
Procedure: In the blood stream, glucose sticks to the haemoglobin to form a “glycosylated haemoglobin” molecule, called haemoglobin A1C or HbA1C. The more glucose in the blood, the more haemoglobin A1C or HbA1C will be present in the blood. The HbA1C test is currently one of the common ways to check if diabetes is under control. See, e.g. Diabetes Care. 2001; 24:465-471.
In this study, the db/db mice (Jackson Laboratory) were orally administered with Compound 1 (100 mg/kg/day) for 28 days. Subsequently, normal mice, db/db-mice, and the Compound 1-treated db/db-mice were subjected to a HbA1C test, which was conducted based on a method as described in Life Sci. 2005; 77:1391-403. Briefly, at the end of the experimental period, animals were sacrificed by exsanguinations under diethyl ether anesthesia. Plasma was separated from the blood by centrifugation. HbA1c in blood was measured by the standardized method.

db/db mice [7] = test: HOMA-IR test in type II diabetic mice; format: in vivo; details: 100 mg/kg/day orally for 28 days
Procedure: HOMA-IR is expressed by an empirical mathematical formula based on fasting plasma glucose and fasting plasma insulin levels that was developed as a surrogate measurement of in vivo insulin sensitivity: HOMA value for insulin resistance: (HOMA-IR)=fasting insulin (μU/ml)×fasting glucose (mmol/l)/22.5. See, e.g., Biol. Pharm. Bull. 2007; 30:2196-2200.
In this study, the db/db mice (Jackson Laboratory) were orally administered with Compound 1 (100 mg/kg/day) for 28 days. Subsequently, normal mice, db/db-mice, and the Compound 1-treated db/db-mice were subjected to a HOMA-IR test, which was conducted based on a method as described in Biol. Pharm. Bull. 2007; 30:2196-2200. Briefly, mouse insulin enzyme immunoassay ELISA kit was used to measure the plasma insulin concentration. Insulin resistance was determined by the homeostasis model assessment (HOMA) method.

[8] = tested on: AMP-activated protein kinase (AMPK); test: AMPK phosphorylation assay; format: cell-based; details: C2C12 myotubes, 0, 1, 3, 10 and 30 μM, 37° C., 1 hour
Procedure: In this study, differentiated C2C12 mycrotubes (American Type Culture Collection: ATCC) were used to conduct an AMPK phosphorylation assay, which was performed based on the method as described in Experimental and Molecular Medicine, Vol. 39, No. 2, 222-229, 2007. Briefly, the cells were cultured as in Example 1 and incubated with different concentrations of Compound 1 (0, 1, 3, 10 and 30 μM) at 37° C. for 1 hour and then cells were lysed. The cell lysate were immunodetected with phosphor-AMPK specific antibody. […] AMPK activator AICAR (5-amino-4-carboxamide imidazole riboside 5′-phosphate, 1 mM) was used as a positive control.

acetyl CoA carboxylase = test: Acetyl CoA carboxylase (ACC) phosphorylation assay; format: cell-based; details: C2C12 mycrotubes, different concentrations
[9] = tested on: High fat-diet fed (HFD) mice; test: Blood lipid/cholesterol assay in high fat-diet fed mice; format: in vivo; details: 100 mg/kg orally for 28 days
Procedure: High fat-diet fed (HFD) mice as a type 2 diabetic model were prepared based on the method as previously described in Diabetes 53 (Suppl. 3):S215-S219, 2004). In this study, mice were fed with a high-fat diet (TestDiet, Richmond, Ind., USA; fat content 60% kcal) for 8 weeks to induce type 2 diabetes. The HFD mice were treated with Compound 1 orally (100 mg/kg) for 28 days; and then normal mice, HFD mice, and the Compound 1-treated HFD mice were analyzed for the levels of serum lipids, including total cholesterol, triglyceride, high-density lipoprotein (HDL)-cholesterol, and low-density lipoprotein (LDL)-cholesterol by ELISA kits.

[10] = STZ-induced diabetic mice, 100 mg/kg orally for 14 days, glucose 2 g/kg orally

SMILES	phosphorylation of the AMPK alpha-subunit at Thr172 [8]	blood glucose levels in STZ-induced diabetic mice (glucose tolerance) [1, 10]	insulin sensitivity (glucose uptake) (C2C12 mycrotubes [2])	HOMA-IR levels (db/db mice [7])	other results
Cc1cc2c(c(C)c1CCO)C(=O)C(C)(CO)C2 (stereo not shown) [Compound 1, 6-(2-Hydroxy-ethyl)-2-hydroxymethyl-2,5,7-trimethyl-indan-1-one]	increased the phosphorylation of the AMPK alpha-subunit at Thr^172 in a dose dependent manner	significantly lowered blood glucose levels	significantly enhanced the insulin sensitivity	significantly reduced the HOMA-IR levels	blood glucose levels at 30 minute after glucose uptake ([1]; STZ-diabetic mice, 50 mg/kg orally, 2 hours before 1 g/kg oral glucose, 30 min): increased only slightly; blood glucose levels 60 minutes after glucose uptake ([1]; STZ-diabetic mice, 50 mg/kg orally, 2 hours before 1 g/kg oral glucose, 60 min): significantly lowered; blood glucose levels 45 minutes after glucose administration ([1]; STZ-induced diabetic mice, 100 mg/kg orally for 14 days, glucose 2 g/kg orally, 45 min): decreased significantly; glucose consumption/uptake (C2C12 mycrotubes [3]): significantly promote glucose consumption/uptake; redistribution of Glut4 into the cell membrane of soleus muscles [4]: significantly rescued the redistribution of Glut4; overexpression of PEPCK mRNA in the liver (PEPCK mRNA): significantly inhibited the overexpression of PEPCK mRNA; glucose intolerance in db/db-mice (db/db mice [5]): significantly improved the glucose intolerance; HbA1C levels (db/db mice [6]): significantly reduced the HbA1C levels; phosphorylation of acetyl CoA carboxylase at Ser79 (acetyl CoA carboxylase): increased phosphorylation; anti-obesity effects [9]: exhibited anti-obesity effects; serum lipids ([9]; total cholesterol, triglyceride, HDL- and LDL-cholesterol by ELISA): significantly reduced serum lipids
Cc1cc2c(c(C)c1CCO)C(=O)C(C)C2O (stereo not shown) [Compound 4]	the same effect	–	–	–	–
Cc1cc2c(c(C)c1CCO)C(=O)C(C)(C)C2O (stereo not shown) [Compound 7]	the same effect	the same effect	the same effect	the same effect	–

Now from value to molecule, other results behind:

phosphorylation of the AMPK alpha-subunit at Thr172 [8]	SMILES	blood glucose levels in STZ-induced diabetic mice (glucose tolerance) [1, 10]	insulin sensitivity (glucose uptake) (C2C12 mycrotubes [2])	HOMA-IR levels (db/db mice [7])	other results
the same effect	Cc1cc2c(c(C)c1CCOC1OC(CO)C(O)C(O)C1O)C(=O)C(C)(C)C2 (stereo not shown) [Compound 52]	–	–	–	–
the same effect	Cc1cc2c(c(C)c1CCO)C(=O)C(C)(C)C2OC1OC(CO)C(O)C(O)C1O (stereo not shown) [Compound 73]	the same effect	the same effect	the same effect	–
